{"source": "patent US20240166626A1", "about": "“Compounds and Methods for Preventing, Treating, or Ameliorating Airway Disease” (THOMAS JEFFERSON UNIVERSITY, priority 2021, published 2024)", "target": "β2AR-Gs (Homo sapiens, UniProt P07550)", "sequence (P07550 whole entry)": "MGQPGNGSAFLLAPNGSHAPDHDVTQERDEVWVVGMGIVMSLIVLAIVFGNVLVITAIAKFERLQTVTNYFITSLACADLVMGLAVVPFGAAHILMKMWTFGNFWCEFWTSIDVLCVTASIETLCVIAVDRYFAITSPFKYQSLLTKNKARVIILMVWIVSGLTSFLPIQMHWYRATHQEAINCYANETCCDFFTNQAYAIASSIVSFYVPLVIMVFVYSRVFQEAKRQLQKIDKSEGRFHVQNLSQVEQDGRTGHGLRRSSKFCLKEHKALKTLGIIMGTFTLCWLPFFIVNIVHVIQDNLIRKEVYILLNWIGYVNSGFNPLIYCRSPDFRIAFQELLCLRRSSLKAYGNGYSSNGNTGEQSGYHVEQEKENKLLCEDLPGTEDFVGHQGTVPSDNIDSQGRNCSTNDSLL", "sequence (P63092 whole entry partner)": "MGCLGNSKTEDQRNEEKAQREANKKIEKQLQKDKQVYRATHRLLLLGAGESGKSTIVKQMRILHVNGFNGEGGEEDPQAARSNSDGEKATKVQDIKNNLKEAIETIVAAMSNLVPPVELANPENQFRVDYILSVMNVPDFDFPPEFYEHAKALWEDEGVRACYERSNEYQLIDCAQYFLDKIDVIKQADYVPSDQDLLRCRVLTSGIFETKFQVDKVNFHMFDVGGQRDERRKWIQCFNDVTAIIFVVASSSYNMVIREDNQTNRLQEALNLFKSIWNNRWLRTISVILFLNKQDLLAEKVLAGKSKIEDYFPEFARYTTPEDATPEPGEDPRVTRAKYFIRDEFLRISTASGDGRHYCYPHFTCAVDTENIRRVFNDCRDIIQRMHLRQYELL", "sequence (P62873 whole entry partner)": "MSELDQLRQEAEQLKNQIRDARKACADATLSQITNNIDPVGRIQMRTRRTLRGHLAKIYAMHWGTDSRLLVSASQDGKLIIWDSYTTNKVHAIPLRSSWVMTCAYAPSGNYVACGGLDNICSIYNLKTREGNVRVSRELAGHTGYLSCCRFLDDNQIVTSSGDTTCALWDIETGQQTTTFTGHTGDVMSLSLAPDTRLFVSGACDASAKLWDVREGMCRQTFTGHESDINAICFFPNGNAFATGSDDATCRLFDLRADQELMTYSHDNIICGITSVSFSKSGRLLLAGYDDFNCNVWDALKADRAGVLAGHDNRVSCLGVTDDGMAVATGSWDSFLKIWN", "sequence (P59768 2-68 partner)": "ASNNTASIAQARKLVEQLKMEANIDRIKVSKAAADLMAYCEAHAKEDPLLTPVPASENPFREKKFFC", "test": "Gs activation by [35S]GTPγS binding, reconstituted β2AR-Gs in lipid bicelles", "assay_type": "biochemical", "conditions": "10 μM DFPQ, 1 μM ISO, FIG. 5E", "protocol": "FIGS. 5A-5E illustrate certain embodiments of the disclosure. FIG. 5A: Primary titration screening data of DFPQ. […] FIGS. 5C and 5D: […] Wells were read every 2 min post agonist addition. FIG. 5E: […] Bound [^35S]-GTPγS was collected by rapid filtration on GF/B filters, washed 4 times with 4 ml of cold GTPγS wash buffer and analyzed by liquid scintillation. […]® ADRB2 cells (DiscoveRx) were maintained with the AssayCompleteTM Cell Culture kit (DiscoveRx catalog #92-[…]). […] HEK 293 cells stably overexpressing β2AR included 250 μg/ml G418. Cells were incubated at 37° C. in a humidified incubator with 5% CO2. […] Cells were read every three minutes for 18 minutes on a PolarStar Optima plate reader (BMG) to establish peak signal. […] Luminescence was determined at room temperature (23-25° C.) on a PolarStar Optima plate reader (BMG). […] Relative assay bias was calculated from the ratio of normalized cAMP and arrestin recruitment responses. […] BRET was measured using a Tecan Infinite F500 microplate reader. […] Bound [35 S]GTPγS was collected by rapid filtration on GF/B filters, washed 4 times with 4 ml of cold GTPγS wash buffer and analyzed by liquid scintillation counting. […] Immunoprecipitated proteins were separated by SDS-PAGE and analyzed by western blot using a β2AR C-terminal tail or phospho-specific antibody. […] Band intensity was measured by densitometry using ImageJ. […]", "data": [{"compound": "Fc1ccc(Nc2nc(NC3CCCCC3)c3ccccc3n2)cc1F", "note": "[DFPQ, N^4-cyclohexyl-N^2-(3,4-difluorophenyl)quinazoline-2,4-diamine]", "values": [{"measurement": "effect on ISO-dependent activation of purified Gs by the β2AR (GTPγS binding)", "value": "no effect"}]}]}
